Measured values: patent US20260055097A9, “NRF2 PROTEIN DEGRADERS” (Ganymede Oncology, Inc., priority 2022, published 2026)
Like-named read-outs stand apart in the source and are kept apart here.

Experiments:
Format in all cases: cell-based
[1] = test system: LK-2; experiment: Cancer cell viability, LK-2 (CellTiter-Glo); conditions: Homo sapiens, LK-2, 72 h, LK-2 cells, 3 days, read-out: Cellular IC50 (μM) LK-2
Experimental: (§1) Representative Compounds of the Disclosure were tested in A549 (Vendor: ATCC; Cat #CCL-185; Description: lung, carcinoma) and/or LK-2 (Vendor: Riken; Cat #RCB1970; Description: lung, squamous cell carcinoma) cellular viability assays according to the following general protocol. • 1. Observed the cells under microscope. • 2. Aspirated the media and added 5 mL trypsin and incubate for 3 mins. • 3. Added 10 mL fresh media and harvested all the cells in to 15 mL tubes. • 4. Centrifuged the cells at 1000 rpm for 5 mins. • 5. Re-suspended the cells with 11 mL media and took 1 mL to determine the cell number and viability. • 6. Prepared cells suspension at 20 K/mL (A549) or 35 K/mL (LK-2) • 7. Seeded the cells into 96-well plate and incubated for overnight. • 8. Added compounds into each well with a HPD300 machine (nine three-fold dilutions typically starting at 30 µM final concentration) and incubated for 3 days. • 9. After 3 days, took out the plates from the incubator and observed the cells under microscope. • 10. Passed a film at the bottom of the plates. • 11. Equilibrated the plate and its contents at room temperature for approximately 30 minutes. • 12. Thawed the CellTiter-Glo® Buffer and equilibrated to room temperature prior to use. • 13. Equilibrated the lyophilized CellTiter-Glo® Substrate to room temperature prior to use. • 14. Transferred 100 ml of CellTiter-Glo® Buffer into the amber bottle containing CellTiter-Glo® Substrate to reconstituted the lyophilized enzyme/substrate mixture. • 15. Mixed by gently vortexing, swirling or inverting the contents to obtain a homogeneous solution. • 16. Added 100 μL CellTiter-Glo® Reagent into each well • 17. Mixed contents for 15 minutes on an orbital shaker to induce cell lysis. • 18. Recorded luminescence with EnSpire machine. • 19. Passed the raw data into the file and analyzed the data with XLfit software.

[2] = test system: A549; experiment: Cancer cell viability, A549 (CellTiter-Glo); conditions: Homo sapiens, 72 h, A549 cells, 3 days, read-out: Cellular IC50 (μM) A549
Experimental: as §1, with “Added compounds into each well with a HPD300 machine (nine three-fold dilutions typically starting at 30 µM final concentration) and incubated for 3 days. • 9.” left out

[3] = target: T1, Nrf2 (Homo sapiens, UniProt Q16236); experiment: Nrf2 degradation in A549 HiBiT-Nrf2 cells, Nano-Glo HiBiT lytic detection (HiBiT readout); parameters: host or cells: A549 HiBiT-Nrf2 cells (engineered line bought from Promega)
T1 sequence (Q16236 1-605): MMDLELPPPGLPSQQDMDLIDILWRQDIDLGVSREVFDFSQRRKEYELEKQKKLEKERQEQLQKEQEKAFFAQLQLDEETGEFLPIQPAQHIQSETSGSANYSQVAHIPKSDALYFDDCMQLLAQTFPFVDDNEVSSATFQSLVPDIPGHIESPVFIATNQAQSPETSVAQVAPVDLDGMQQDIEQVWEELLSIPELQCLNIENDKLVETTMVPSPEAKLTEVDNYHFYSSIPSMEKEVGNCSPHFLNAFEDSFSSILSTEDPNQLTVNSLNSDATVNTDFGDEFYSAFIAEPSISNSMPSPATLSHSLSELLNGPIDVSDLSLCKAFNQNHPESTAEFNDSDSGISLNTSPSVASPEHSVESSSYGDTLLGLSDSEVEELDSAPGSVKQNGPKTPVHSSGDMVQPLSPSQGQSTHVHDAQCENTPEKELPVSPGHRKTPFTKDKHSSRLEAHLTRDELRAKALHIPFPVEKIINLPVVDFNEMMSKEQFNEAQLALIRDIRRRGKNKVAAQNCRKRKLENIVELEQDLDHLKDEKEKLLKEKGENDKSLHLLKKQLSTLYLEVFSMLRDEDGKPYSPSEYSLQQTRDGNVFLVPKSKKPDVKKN
Experimental: A549 HiBiT-Nrf2 cells (Promega, Cat. No. CS3023219) were seeded into 384-well plates at cell density of 5,000 cells/well in 40 μL of cell culture medium (Ham's F-12 Nutrient Mix supplemented with 10% FBS and 1% antibiotic-antimycotic).
The next day, cells were treated with representative Compounds of the Disclosure and incubated for 6 h and 20 h at 37° C., 5% CO2. Staurosporine was used as a control.
At the end of incubation Nrf2 degradation (HiBiT readout) and cell viability (CellTiter-Glo readout) were determined. For HiBiT readout, Nano-Glo HiBiT Reagent mix (Promega, Cat. No. N3050) was added to wells, plates were incubated 2 min on an orbital shaker and incubated at room temperature in the dark for additional 30 minutes. At the end of incubation luminescence was measured using ultrasensitive luminescence mode (Envision, Perkin Elmer).

[4] = 20 h, read-out: DC50 (nM) at 20 h
[5] = 6 h, read-out: DC50 (nM) at 6 h

Structure (SMILES)	IC50 [1]	IC50 [2]	DC50 [3, 4]	DC50 [3, 5]
Cc1ccccc1C(=O)N1CCc2cc(-c3nc(NC(=O)Cc4cccc(OCCOCCOCCOc5ccc6c(c5)C(=O)N(C5CCC(=O)NC5=O)C6=O)c4)sc3C)ccc21 (centres unmarked) [Cpd. No. 19, 2-(3-(2-(2-(2-((2-(2,6-dioxopiperidin-3-yl)-1,3-dioxoisoindolin-5-yl)oxy)ethoxy)ethoxy)ethoxy)phenyl)-N-(5-methyl-4-(1-(2-methylbenzoyl)indolin-5-yl)thiazol-2-yl)acetamide]	2.5 µM	11 µM	–	–
Cc1ccccc1C(=O)N1CCc2cc(-c3nc(NC(=O)Cc4cccc(OCCOCCOCCNc5ccc6c(c5)C(=O)N(C5CCC(=O)NC5=O)C6=O)c4)sc3C)ccc21 (centres unmarked) [Cpd. No. 21, 2-(3-(2-(2-(2-((2-(2,6-dioxopiperidin-3-yl)-1,3-dioxoisoindolin-5-yl)amino)ethoxy)ethoxy)ethoxy)phenyl)-N-(5-methyl-4-(1-(2-methylbenzoyl)indolin-5-yl)thiazol-2-yl)acetamide]	> 30 µM	> 30 µM	–	–
Cc1sc(NC(=O)Cc2cccc(OCCCCCNc3cccc4c3CN(C3CCC(=O)NC3=O)C4=O)c2)nc1-c1ccc2c(c1)CCN2C(=O)C1CC1 (centres unmarked) [Cpd. No. 69, N-(4-(1-(cyclopropanecarbonyl)indolin-5-yl)-5-methylthiazol-2-yl)-2-(3-((5-((2-(2,6-dioxopiperidin-3-yl)-1-oxoisoindolin-4-yl)amino)pentyl)oxy)phenyl)acetamide]	–	0.18 µM	< 300 nM	< 300 nM
Cc1sc(NC(=O)Cc2cccc(OCCCCCCCCNc3cccc4c3C(=O)N(C3CCC(=O)NC3=O)C4=O)c2)nc1-c1ccc2c(c1)CCN2C(=O)C1CC1 (centres unmarked) [Cpd. No. 72, N-(4-(1-(cyclopropanecarbonyl)indolin-5-yl)-5-methylthiazol-2-yl)-2-(3-((8-((2-(2,6-dioxopiperidin-3-yl)-1,3-dioxoisoindolin-4-yl)amino)octyl)oxy)phenyl)acetamide]	–	0.23 µM	> 3000 nM	–
Cc1ncccc1C(=O)N1CCc2cc(-c3nc(NC(=O)Cc4cccc(OCCOCCNc5cccc6c5C(=O)N(C5CCC(=O)NC5=O)C6=O)c4)sc3C)ccc21 (centres unmarked) [Cpd. No. 76, 2-(3-(2-(2-((2-(2,6-dioxopiperidin-3-yl)-1,3-dioxoisoindolin-4-yl)amino)ethoxy)ethoxy)phenyl)-N-(5-methyl-4-(1-(2-methylnicotinoyl)indolin-5-yl)thiazol-2-yl)acetamide]	–	0.011 µM	< 300 nM	> 3000 nM
Cc1cnccc1C(=O)N1CCc2cc(-c3nc(NC(=O)Cc4cccc(OCCOCCNc5cccc6c5C(=O)N(C5CCC(=O)NC5=O)C6=O)c4)sc3C)ccc21 (centres unmarked) [Cpd. No. 77, 2-(3-(2-(2-((2-(2,6-dioxopiperidin-3-yl)-1,3-dioxoisoindolin-4-yl)amino)ethoxy)ethoxy)phenyl)-N-(5-methyl-4-(1-(3-methylisonicotinoyl)indolin-5-yl)thiazol-2-yl)acetamide]	–	0.0077 µM	< 300 nM	> 3000 nM
Cc1ccncc1C(=O)N1CCc2cc(-c3nc(NC(=O)Cc4cccc(OCCOCCNc5cccc6c5C(=O)N(C5CCC(=O)NC5=O)C6=O)c4)sc3C)ccc21 (centres unmarked) [Cpd. No. 78, 2-(3-(2-(2-((2-(2,6-dioxopiperidin-3-yl)-1,3-dioxoisoindolin-4-yl)amino)ethoxy)ethoxy)phenyl)-N-(5-methyl-4-(1-(4-methylnicotinoyl)indolin-5-yl)thiazol-2-yl)acetamide]	–	0.0059 µM	< 300 nM	> 3000 nM

Now from value to compound:

IC50 [1]	IC50 [2]	DC50 [3, 4]	DC50 [3, 5]	Structure (SMILES)
> 30 µM	> 30 µM	–	–	Cc1ccccc1C(=O)N1CCc2cc(-c3nc(NC(=O)Cc4cccc(OCCCNc5cccc6c5C(=O)N(C5CCC(=O)NC5=O)C6=O)c4)sc3C)ccc21 (centres unmarked) [Cpd. No. 6, 2-(3-(3-((2-(2,6-dioxopiperidin-3-yl)-1,3-dioxoisoindolin-4-yl)amino)propoxy)phenyl)-N-(5-methyl-4-(1-(2-methylbenzoyl)indolin-5-yl)thiazol-2-yl)acetamide]
0.06 µM	0.3 µM	–	–	Cc1sc(NC(=O)Cc2cccc(OCCOCCNc3ccc4c(c3)C(=O)N(C3CCC(=O)NC3=O)C4=O)c2)nc1-c1ccc2c(c1)CCN2C(=O)C1CC1 (centres unmarked) [Cpd. No. 22, N-(4-(1-(cyclopropanecarbonyl)indolin-5-yl)-5-methylthiazol-2-yl)-2-(3-(2-(2-((2-(2,6-dioxopiperidin-3-yl)-1,3-dioxoisoindolin-5-yl)amino)ethoxy)ethoxy)phenyl) acetamide]
–	> 30 µM	< 300 nM	–	Cc1sc(NC(=O)Cc2cccc(OCCC3CCN(c4ccc5c(c4)C(=O)N(C4CCC(=O)NC4=O)C5=O)CC3)c2)nc1-c1ccc2c(c1)CCN2C(=O)C1CC1 (centres unmarked) [Cpd. No. 68, N-(4-(1-(cyclopropanecarbonyl)indolin-5-yl)-5-methylthiazol-2-yl)-2-(3-(2-(1-(2-(2,6-dioxopiperidin-3-yl)-1,3-dioxoisoindolin-5-yl)piperidin-4-yl)ethoxy)phenyl)acetamide]
–	0.043 µM	< 300 nM	> 3000 nM	Cc1cccnc1C(=O)N1CCc2cc(-c3nc(NC(=O)Cc4cccc(OCCOCCNc5cccc6c5C(=O)N(C5CCC(=O)NC5=O)C6=O)c4)sc3C)ccc21 (centres unmarked) [Cpd. No. 79, 2-(3-(2-(2-((2-(2,6-dioxopiperidin-3-yl)-1,3-dioxoisoindolin-4-yl)amino)ethoxy)ethoxy)phenyl)-N-(5-methyl-4-(1-(3-methylpicolinoyl)indolin-5-yl)thiazol-2-yl)acetamide]
–	0.075 µM	–	> 3000 nM	COc1ccncc1C(=O)N1CCc2cc(-c3nc(NC(=O)Cc4cccc(OCCOCCNc5cccc6c5C(=O)N(C5CCC(=O)NC5=O)C6=O)c4)sc3C)ccc21 (centres unmarked) [Cpd. No. 80, 2-(3-(2-(2-((2-(2,6-dioxopiperidin-3-yl)-1,3-dioxoisoindolin-4-yl)amino)ethoxy)ethoxy)phenyl)-N-(4-(1-(4-methoxynicotinoyl)indolin-5-yl)-5-methylthiazol-2-yl)acetamide]
